From PMC5433351 (Metabolic engineering, 2016)

Target: HPCS, 3-hydroxypropionyl-CoA synthetase (HPCS/HPCD complex) (Metallosphaera sedula, UniProt A4YGR1)
Conditions: ATP 3 mM, CoA 0.1 mM, MgCl2 20 mM, NADPH 0.5 mM, pH 6.5, 65°C

Sequence of HPCS, 3-hydroxypropionyl-CoA synthetase (HPCS/HPCD complex) (A4YGR1 whole entry): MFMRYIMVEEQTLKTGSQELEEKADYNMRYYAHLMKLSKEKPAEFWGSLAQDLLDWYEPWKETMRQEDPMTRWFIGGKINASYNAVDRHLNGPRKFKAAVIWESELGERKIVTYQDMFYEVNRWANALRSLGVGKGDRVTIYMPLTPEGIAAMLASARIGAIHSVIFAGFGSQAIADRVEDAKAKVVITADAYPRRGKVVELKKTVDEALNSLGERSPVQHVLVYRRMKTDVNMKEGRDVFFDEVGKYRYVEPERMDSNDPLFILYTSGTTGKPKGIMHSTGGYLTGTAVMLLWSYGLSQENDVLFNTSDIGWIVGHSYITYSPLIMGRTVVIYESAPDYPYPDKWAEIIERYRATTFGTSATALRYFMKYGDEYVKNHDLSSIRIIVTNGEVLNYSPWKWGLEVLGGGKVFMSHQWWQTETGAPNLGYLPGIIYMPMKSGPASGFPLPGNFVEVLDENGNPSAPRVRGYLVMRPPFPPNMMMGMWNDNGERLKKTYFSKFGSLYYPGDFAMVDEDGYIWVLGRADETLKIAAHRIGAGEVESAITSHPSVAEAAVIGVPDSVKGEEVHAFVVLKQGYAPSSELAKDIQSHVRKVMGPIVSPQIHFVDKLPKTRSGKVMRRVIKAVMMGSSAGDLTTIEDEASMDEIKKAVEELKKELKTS
Sequence of HPCS, 3-hydroxypropionyl-CoA synthetase (HPCS/HPCD complex) (A4YI89 whole entry partner): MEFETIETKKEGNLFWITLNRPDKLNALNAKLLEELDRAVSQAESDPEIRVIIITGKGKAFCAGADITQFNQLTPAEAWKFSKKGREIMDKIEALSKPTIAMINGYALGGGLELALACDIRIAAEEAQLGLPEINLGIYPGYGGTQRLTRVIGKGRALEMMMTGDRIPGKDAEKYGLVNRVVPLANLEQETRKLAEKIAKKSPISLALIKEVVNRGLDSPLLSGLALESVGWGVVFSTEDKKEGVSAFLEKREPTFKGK

O=C(O)CCO [3-Hydroxypropionate]
HPLC of propionyl-CoA formed with HPCS/HPCD and ACR: Formation of propionyl-CoA from 3HP by HPCS, HDCD, and ACR
